Consider 18 substances from the OligoGym collection.

HELM strings list units from the 5' end as sugar, base in round brackets, then linkage (d deoxyribose, r ribose, m 2'-O-methyl, p phosphodiester). Strings are as the collection lists them; they lack the last nucleoside at the 3' end of the tested compound. [moe] = 2'-O-(2-methoxyethyl) (MOE); [sp] = phosphorothioate linkage; [m5C] = 5-methylcytosine

The target in the series is UBE3A-ATS. The series can be described thus: mouse, dose not given. To be noted: ASO.
In the case of “RNA1{[moe](A)[sp].[moe]([m5C])p.[moe](T)p.[moe](T)p.[moe](T)p.d([m5C])[sp].d(A)[sp].d(T)[sp].d([m5C])[sp].d(A)[sp].d(G)[sp].d(T)[sp].d(T)[sp].d(A)[sp].d(G)[sp].[moe](T)p.[moe]([m5C])p.[moe](A)[sp].[moe](G)}$$$$ (last 3' nucleoside missing)”, the 3 h FOB score was 5.2 score 0-7. In the case of “RNA1{[moe](G)[sp].[moe](A)p.[moe](G)p.[moe]([m5C])p.d(T)[sp].d(A)[sp].d(T)[sp].d([m5C])[sp].d(T)[sp].d(G)[sp].d(T)[sp].d(A)[sp].d([m5C])[sp].d(A)[sp].[moe](A)p.[moe](A)p.[moe](A)p.[moe](T)[sp].[moe](G)}$$$$ (last 3' nucleoside missing)” it was 4.7 score 0-7. To “RNA1{[moe]([m5C])[sp].[moe]([m5C])p.[moe](T)p.[moe]([m5C])p.[moe](T)p.d(T)[sp].d([m5C])[sp].d([m5C])[sp].d(A)[sp].d(A)[sp].d(A)[sp].d(A)[sp].d(T)[sp].d(T)[sp].d([m5C])[sp].[moe](T)p.[moe]([m5C])p.[moe](A)[sp].[moe]([m5C])}$$$$ (last 3' nucleoside missing)” belongs 0 score 0-7; to “RNA1{[moe](T)[sp].[moe](G)p.[moe]([m5C])p.[moe](T)[sp].d([m5C])[sp].d(A)[sp].d(G)[sp].d(T)[sp].d(T)[sp].d(A)[sp].d(G)[sp].d(G)[sp].[moe](T)p.[moe](T)p.[moe](A)p.[moe](G)[sp].[moe](T)}$$$$ (last 3' nucleoside missing)”, 7 score 0-7. In the case of “RNA1{[moe](G)[sp].[moe](A)p.[moe](G)p.[moe](A)p.[moe]([m5C])p.d(A)[sp].d(T)[sp].d(G)[sp].d(T)[sp].d(G)[sp].d([m5C])[sp].d([m5C])[sp].d(A)[sp].d(G)[sp].d(T)[sp].[moe](T)p.[moe]([m5C])p.[moe](A)[sp].[moe](A)}$$$$ (last 3' nucleoside missing)” it was 6 score 0-7.

“RNA1{[moe]([m5C])[sp].[moe](G)p.[moe](T)p.[moe](G)p.[moe](A)p.d(G)[sp].d([m5C])[sp].d(T)[sp].d(A)[sp].d(T)[sp].d([m5C])[sp].d(T)[sp].d(G)[sp].d(T)[sp].d(A)[sp].[moe]([m5C])p.[moe](A)p.[moe](A)[sp].[moe](A)}$$$$ (last 3' nucleoside missing)” had a 3 h FOB score of 3.2 score 0-7. For the substance “RNA1{[moe](A)[sp].[moe]([m5C])p.[moe](T)p.[moe](G)p.[moe]([m5C])p.[moe](T)p.d(T)[sp].d([m5C])[sp].d(A)[sp].d([m5C])[sp].d([m5C])[sp].d(A)[sp].d(T)[sp].d(T)[sp].d(T)[sp].d(T)[sp].[moe](G)p.[moe](A)[sp].[moe]([m5C])}$$$$ (last 3' nucleoside missing)”, the 3 h FOB score was 1 score 0-7.

Substance “RNA1{[moe](T)[sp].[moe](A)p.[moe](T)p.[moe](T)p.[moe](G)p.d(G)[sp].d(T)[sp].d([m5C])[sp].d(A)[sp].d(T)[sp].d([m5C])[sp].d(T)[sp].d([m5C])[sp].d(G)[sp].d(G)[sp].[moe](G)p.[moe](T)p.[moe](A)[sp].[moe](T)}$$$$ (last 3' nucleoside missing)” returned a 3 h FOB score of 3.3 score 0-7.

In turn, “RNA1{[moe]([m5C])[sp].[moe](A)p.[moe](A)p.[moe](T)p.[moe](G)p.d(G)[sp].d(T)[sp].d(T)[sp].d(T)[sp].d(A)[sp].d(G)[sp].d(T)[sp].d(G)[sp].d(T)[sp].d([m5C])[sp].[moe](A)p.[moe](T)p.[moe](A)[sp].[moe](T)}$$$$ (last 3' nucleoside missing)” returned a 3 h FOB score of 5 score 0-7.

Take “RNA1{[moe]([m5C])[sp].[moe](A)p.[moe](T)p.[moe](T)p.[moe](G)p.d(G)[sp].d([m5C])[sp].d(T)[sp].d(T)[sp].d([m5C])[sp].d(A)[sp].d(T)[sp].d(A)[sp].d(T)[sp].d(T)[sp].[moe](T)p.[moe]([m5C])p.[moe](T)[sp].[moe]([m5C])}$$$$ (last 3' nucleoside missing)”: the 3 h FOB score is 0 score 0-7.

The substance “RNA1{[moe]([m5C])[sp].[moe](A)p.[moe](G)p.[moe](T)p.[moe](T)[sp].d(A)[sp].d(G)[sp].d(G)[sp].d(T)[sp].d(T)[sp].d(A)[sp].d(G)[sp].d(T)[sp].[moe](G)p.[moe]([m5C])p.[moe](A)[sp].[moe]([m5C])}$$$$ (last 3' nucleoside missing)” had a 3 h FOB score of 4 score 0-7.

The substance “RNA1{[moe](T)[sp].[moe]([m5C])p.[moe](A)p.[moe]([m5C])p.[moe]([m5C])[sp].d(A)[sp].d(T)[sp].d(T)[sp].d(T)[sp].d(T)[sp].d(G)[sp].d(A)[sp].d([m5C])[sp].[moe]([m5C])p.[moe](T)p.[moe](T)[sp].[moe]([m5C])}$$$$ (last 3' nucleoside missing)” displayed a 3 h FOB score of 2 score 0-7. In the case of “RNA1{[moe](T)[sp].[moe](T)p.[moe](A)p.[moe](G)p.[moe](G)p.d(T)[sp].d([m5C])[sp].d(A)[sp].d(A)[sp].d([m5C])[sp].d([m5C])[sp].d(A)[sp].d(A)[sp].d(T)[sp].d(T)[sp].[moe](T)p.[moe](G)p.[moe]([m5C])[sp].[moe](T)}$$$$ (last 3' nucleoside missing)” it was 0 score 0-7; in that of “RNA1{[moe]([m5C])[sp].[moe](T)p.[moe](T)p.[moe]([m5C])p.[moe](A)p.[moe]([m5C])p.d([m5C])[sp].d(A)[sp].d(T)[sp].d(T)[sp].d(T)[sp].d(T)[sp].d(G)[sp].d(A)[sp].d([m5C])[sp].d([m5C])[sp].[moe](T)p.[moe](T)[sp].[moe]([m5C])}$$$$ (last 3' nucleoside missing)”, 1 score 0-7. In the case of “RNA1{[moe](A)[sp].[moe](G)p.[moe](A)p.[moe](G)p.[moe](T)p.d(A)[sp].d(G)[sp].d(T)[sp].d([m5C])[sp].d(T)[sp].d(A)[sp].d(T)[sp].d(T)[sp].d(G)[sp].d(G)[sp].[moe](T)p.[moe](G)p.[moe](T)[sp].[moe](T)}$$$$ (last 3' nucleoside missing)” it was 3.8 score 0-7; in that of “RNA1{[moe](T)[sp].[moe](A)p.[moe](G)p.[moe](G)p.d(T)[sp].d([m5C])[sp].d(A)[sp].d(A)[sp].d([m5C])[sp].d([m5C])[sp].d(A)[sp].d(A)[sp].d(T)[sp].d(T)[sp].[moe](T)p.[moe](G)p.[moe]([m5C])p.[moe](T)[sp].[moe](A)}$$$$ (last 3' nucleoside missing)”, 0 score 0-7; in that of “RNA1{[moe](A)[sp].[moe](T)p.[moe]([m5C])p.[moe](T)p.[moe](G)p.d(G)[sp].d(T)[sp].d([m5C])[sp].d(T)[sp].d(T)[sp].d(G)[sp].d(G)[sp].d(G)[sp].d(A)[sp].d(T)[sp].[moe](T)p.[moe](A)p.[moe](T)[sp].[moe](A)}$$$$ (last 3' nucleoside missing)”, 4.8 score 0-7. To “RNA1{[moe](G)[sp].[moe](T)p.[moe]([m5C])p.[moe](T)p.[moe](T)p.d([m5C])[sp].d(A)[sp].d(T)[sp].d(T)[sp].d(A)[sp].d(T)[sp].d(T)[sp].d([m5C])[sp].d(T)[sp].d([m5C])[sp].[moe](T)p.[moe](A)p.[moe](G)[sp].[moe](T)}$$$$ (last 3' nucleoside missing)” belongs 4.7 score 0-7.
